Active and inactive are the calls of the source.
Assays:
[1] = biological target: T1, G-protein coupled receptor 35 (Homo sapiens, UniProt Q9HC97); test: SAR analysis of Agonists of the GPR35 Receptor using an Image-Based Assay - Set 4. [Related pubchem assays (depositor defined):AID2013, AID2026]; type: functional
Cannabinoid receptor 1 [2] = biological target: T2, Cannabinoid receptor 1 (Homo sapiens, UniProt P21554); test: SAR analysis of agonists of the Cannabinoid Receptor 1 using an Image-Based Assay - Set 4. [Related pubchem assays (depositor defined):AID2013, AID2026]; type: functional
[3] = biological target: T1, G-protein coupled receptor 35; test: SAR analysis of Antagonists of the GPR35 Receptor using an Image-Based Assay - Set 6. [Related pubchem assays (depositor defined):AID2013, AID2026]; type: functional
Cannabinoid receptor 1 [4] = biological target: T2, Cannabinoid receptor 1; test: SAR analysis of antagonists of the Cannabinoid Receptor 1 using an Image-Based Assay - Set 4. [Related pubchem assays (depositor defined):AID2013, AID2026]; type: functional
[5] = biological target: T3, G-protein coupled receptor 55 (Homo sapiens, UniProt Q9Y2T6); test: SAR Analysis of Selective Antagonists of GPR55 using an Image-Based Assay - Set 4. [Related pubchem assays (depositor defined):AID2013, AID2026]; type: functional
Cannabinoid receptor 2 [6] = biological target: T4, Cannabinoid receptor 2 (Homo sapiens, UniProt P34972); test: SAR analysis of antagonists of the Cannabinoid Receptor 2 using an Image-Based Assay - Set 3. [Related pubchem assays (depositor defined):AID2013, AID2026]; type: functional
Cannabinoid receptor 2 [7] = biological target: T4, Cannabinoid receptor 2; test: SAR analysis of agonists of the Cannabinoid Receptor 2 using an Image-Based Assay - Set 3. [Related pubchem assays (depositor defined):AID2013, AID2026]; type: functional
[8] = biological target: T5, Delta-type opioid receptor (Homo sapiens, UniProt P41143); test: HTS Image-Based Screen for Antagonists of the DOR Receptor. [Related pubchem assays (depositor defined):AID1777, AID1785, AID1786, AID2133]; type: functional
Mu-type opioid receptor = Mu-type opioid receptor (Homo sapiens, UniProt P35372); test: HTS Image-Based Screen for Agonists of the MOR Receptor. [Related pubchem assays (depositor defined):AID1777, AID1785, AID1786, AID2133]; type: functional;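 further: imaging of beta-arrestin GFP recruitment into spots after receptor activation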
[9] = biological target: T5, Delta-type opioid receptor; test: HTS Image-Based Screen for Agonists of the DOR Receptor. [Related pubchem assays (depositor defined):AID1777, AID1786, AID2133]; type: functional
[10] = biological target: T6, Kappa-type opioid receptor (Homo sapiens, UniProt P41145); type: functional
Beta-galactosidase = Beta-galactosidase (Escherichia coli, UniProt Q8VNN2); type: functional
[11] = biological target: T6, Kappa-type opioid receptor; type: functional; remark: listed apart in the source
[12] = biological target: T7, Replicative DNA helicase DnaB (Mycobacterium tuberculosis, UniProt P9WMR3); test: DnaB intein splicing inhibitors, dose response, biochemical, cell-free fluorescence (AID 449749); type: functional
T7 sequence (P9WMR3 whole entry): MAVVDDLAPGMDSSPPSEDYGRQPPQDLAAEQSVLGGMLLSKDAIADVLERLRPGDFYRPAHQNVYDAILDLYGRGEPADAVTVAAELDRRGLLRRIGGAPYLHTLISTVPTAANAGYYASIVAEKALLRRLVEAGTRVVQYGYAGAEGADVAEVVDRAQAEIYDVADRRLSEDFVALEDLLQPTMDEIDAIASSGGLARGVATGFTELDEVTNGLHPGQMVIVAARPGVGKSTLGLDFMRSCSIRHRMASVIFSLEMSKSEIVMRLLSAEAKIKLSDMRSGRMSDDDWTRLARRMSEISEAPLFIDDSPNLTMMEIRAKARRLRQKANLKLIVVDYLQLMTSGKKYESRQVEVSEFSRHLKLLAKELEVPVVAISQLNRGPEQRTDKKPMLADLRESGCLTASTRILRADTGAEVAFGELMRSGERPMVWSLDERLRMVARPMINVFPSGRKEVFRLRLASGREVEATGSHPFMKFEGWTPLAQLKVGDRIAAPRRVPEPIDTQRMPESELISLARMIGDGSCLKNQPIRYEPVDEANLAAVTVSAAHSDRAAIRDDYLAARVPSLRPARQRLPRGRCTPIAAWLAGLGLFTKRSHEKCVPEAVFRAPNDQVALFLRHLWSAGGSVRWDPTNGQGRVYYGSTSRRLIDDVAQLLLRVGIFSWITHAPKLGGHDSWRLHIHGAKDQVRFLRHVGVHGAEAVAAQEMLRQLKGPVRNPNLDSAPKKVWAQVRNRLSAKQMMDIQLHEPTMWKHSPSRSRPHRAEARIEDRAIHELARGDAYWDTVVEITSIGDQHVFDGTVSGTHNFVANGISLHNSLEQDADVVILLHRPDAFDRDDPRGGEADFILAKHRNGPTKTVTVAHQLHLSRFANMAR

Protein RecA = biological target: T8, Protein RecA (Mycobacterium tuberculosis, UniProt P9WHJ3); test: Fluorescence Cell-Free Homogeneous Dose Retest to Identify Inhibitors of RecA-Intein Splicing Activity. [Related pubchem assays (depositor defined):AID2097, AID2223, AID489010, AID492950]; type: functional
T8 sequence (P9WHJ3 whole entry): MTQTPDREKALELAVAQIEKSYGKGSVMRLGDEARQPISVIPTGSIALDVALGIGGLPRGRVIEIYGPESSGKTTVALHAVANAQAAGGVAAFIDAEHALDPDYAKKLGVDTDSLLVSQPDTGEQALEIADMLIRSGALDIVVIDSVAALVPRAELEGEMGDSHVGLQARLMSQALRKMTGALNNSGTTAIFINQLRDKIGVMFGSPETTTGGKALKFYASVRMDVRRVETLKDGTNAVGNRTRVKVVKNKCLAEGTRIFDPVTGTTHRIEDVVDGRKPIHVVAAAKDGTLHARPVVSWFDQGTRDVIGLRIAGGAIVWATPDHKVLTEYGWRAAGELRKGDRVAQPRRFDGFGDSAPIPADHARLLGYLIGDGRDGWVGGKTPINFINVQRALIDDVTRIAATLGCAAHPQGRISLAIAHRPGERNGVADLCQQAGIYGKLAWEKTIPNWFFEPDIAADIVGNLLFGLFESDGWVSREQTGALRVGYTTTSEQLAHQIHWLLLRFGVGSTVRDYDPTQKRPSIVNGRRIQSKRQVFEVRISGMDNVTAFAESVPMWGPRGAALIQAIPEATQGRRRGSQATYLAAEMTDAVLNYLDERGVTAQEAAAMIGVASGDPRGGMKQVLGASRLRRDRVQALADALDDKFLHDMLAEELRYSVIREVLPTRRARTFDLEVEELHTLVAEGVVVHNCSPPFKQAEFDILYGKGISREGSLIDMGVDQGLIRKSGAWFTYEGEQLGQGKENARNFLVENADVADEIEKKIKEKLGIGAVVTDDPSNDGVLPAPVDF

CAAX prenyl protease 2 = CAAX prenyl protease 2 (Saccharomyces cerevisiae S288c, UniProt Q03530); type: biochemical
[13] = mammalian cell cytotoxicity, dose response, cytotoxicity control, plate reader, cherry-pick samples (AID 504397); type: functional, cell-based
[14] = biological target: T3, G-protein coupled receptor 55; test: GPR55 antagonists blocking LPI-driven arrestin recruitment, primary screen, imaging, U2OS, beta-arrestin-GFP, LPI agonist (AID 2013); type: functional;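 further: antagonist potency measured as reduced agonist-driven arrestin aggregation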
Cannabinoid receptor 1 [15] = biological target: T2, Cannabinoid receptor 1; test: SAR analysis of antagonists of the Cannabinoid Receptor 1 using an Image-Based Assay - Set 2. [Related pubchem assays (depositor defined):AID2013, AID2026]; type: functional
[16] = biological target: T1, G-protein coupled receptor 35; test: SAR analysis of Agonists of the GPR35 Receptor using an Image-Based Assay - Set 2. [Related pubchem assays (depositor defined):AID2013, AID2026]; type: functional
Cannabinoid receptor 2 [17] = biological target: T4, Cannabinoid receptor 2; test: SAR analysis of antagonists of the Cannabinoid Receptor 2 using an Image-Based Assay. [Related pubchem assays (depositor defined):AID2013, AID2026]; type: functional
Cannabinoid receptor 1 [18] = biological target: T2, Cannabinoid receptor 1; test: SAR analysis of agonists of the Cannabinoid Receptor 1 using an Image-Based Assay - Set 2. [Related pubchem assays (depositor defined):AID2013, AID2026]; type: functional
[19] = biological target: T1, G-protein coupled receptor 35; test: SAR analysis of Antagonists of the GPR35 Receptor using an Image-Based Assay - Set 3. [Related pubchem assays (depositor defined):AID2013, AID2026]; type: functional
[20] = biological target: T3, G-protein coupled receptor 55; test: GPR55 antagonist potency of analogs, SAR follow-up, imaging, U2OS, beta-arrestin-GFP, LPI agonist, set 2 (AID 2820); type: functional
Cannabinoid receptor 2 [21] = biological target: T4, Cannabinoid receptor 2; test: SAR analysis of agonists of the Cannabinoid Receptor 2 using an Image-Based Assay. [Related pubchem assays (depositor defined):AID2013, AID2026]; type: functional
X-box-binding protein 1 = biological target: T9, X-box-binding protein 1 (Homo sapiens, UniProt P17861); type: functional, Cricetulus griseus;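 further: confirmatory dose-response counter-screen serving a CHOP assay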
T9 sequence (P17861 whole entry): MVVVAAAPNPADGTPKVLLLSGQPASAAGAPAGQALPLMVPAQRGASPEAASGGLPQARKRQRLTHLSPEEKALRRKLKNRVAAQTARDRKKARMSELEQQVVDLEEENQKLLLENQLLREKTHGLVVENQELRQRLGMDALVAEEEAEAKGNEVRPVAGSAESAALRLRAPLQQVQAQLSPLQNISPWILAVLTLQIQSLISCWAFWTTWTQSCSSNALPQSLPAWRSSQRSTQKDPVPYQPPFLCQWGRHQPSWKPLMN

[22] = inhibitors of HIV Env-driven cell fusion, dose response, cherry-pick (AID 652057); type: functional, cell-based
[23] = CEM21 lymphoblast cell cytotoxicity, dose response, cytotoxicity control for viral fusion inhibitor project, CellTiter-Glo luminescence, cherry-picked (AID 652042); type: functional, cell-based;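 further: potency for signal decrease meaning cytotoxicity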
[24] = ZM109 Env clade C HIV-1 fusion inhibitors, dose response, HeLa effector, CEM target cells, luciferase, cherry-pick (AID 652058); type: functional, cell-based
[25] = off-target signal loss in HeLa-CEM21 co-culture – HeLa F-luc CTL cells, cherry-picked, counter-screen for HIV-1 Env fusion inhibitor project, dose response (AID 652040); type: functional, cell-based;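 further: potency for signal decrease marking cytotoxic or nonspecific inhibition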
[26] = inhibitors of clade B AD8 Env fusion, dose response, cell-based, cherry-pick (AID 652062); type: functional;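 further: luciferase signal from cell-cell fusion driven by HIV-1 clade B AD8 Env; potency is for inhibitors of fusion seen as a drop in luminescence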

T3 sequence (Q9Y2T6 whole entry): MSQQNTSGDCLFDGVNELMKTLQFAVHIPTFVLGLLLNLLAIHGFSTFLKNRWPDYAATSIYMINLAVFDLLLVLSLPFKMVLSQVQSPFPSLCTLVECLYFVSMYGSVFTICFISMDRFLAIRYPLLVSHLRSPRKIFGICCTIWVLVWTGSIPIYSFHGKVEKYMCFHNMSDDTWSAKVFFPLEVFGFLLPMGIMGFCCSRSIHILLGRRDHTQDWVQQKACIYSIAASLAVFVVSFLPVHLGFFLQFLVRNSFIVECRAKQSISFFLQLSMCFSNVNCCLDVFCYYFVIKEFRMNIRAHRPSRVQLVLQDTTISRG
T1 sequence (Q9HC97 whole entry): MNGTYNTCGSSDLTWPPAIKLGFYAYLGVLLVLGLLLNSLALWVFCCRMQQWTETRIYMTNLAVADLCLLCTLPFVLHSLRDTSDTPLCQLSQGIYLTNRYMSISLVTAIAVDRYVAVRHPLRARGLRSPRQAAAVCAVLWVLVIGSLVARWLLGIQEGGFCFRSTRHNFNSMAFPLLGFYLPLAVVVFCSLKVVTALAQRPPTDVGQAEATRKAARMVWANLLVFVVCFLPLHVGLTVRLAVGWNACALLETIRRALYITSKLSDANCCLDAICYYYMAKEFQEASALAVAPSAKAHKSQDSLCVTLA
T4 sequence (P34972 whole entry): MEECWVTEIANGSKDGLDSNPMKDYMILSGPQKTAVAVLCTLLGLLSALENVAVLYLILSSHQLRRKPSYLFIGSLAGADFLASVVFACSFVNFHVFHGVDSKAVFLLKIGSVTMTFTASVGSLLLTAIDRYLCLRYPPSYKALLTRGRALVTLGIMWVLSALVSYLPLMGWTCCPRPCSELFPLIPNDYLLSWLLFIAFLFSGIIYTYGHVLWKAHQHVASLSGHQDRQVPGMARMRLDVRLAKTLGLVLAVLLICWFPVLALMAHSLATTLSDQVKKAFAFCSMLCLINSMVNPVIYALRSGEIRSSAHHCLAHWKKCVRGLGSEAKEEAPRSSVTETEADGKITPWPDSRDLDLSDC
T2 sequence (P21554 whole entry): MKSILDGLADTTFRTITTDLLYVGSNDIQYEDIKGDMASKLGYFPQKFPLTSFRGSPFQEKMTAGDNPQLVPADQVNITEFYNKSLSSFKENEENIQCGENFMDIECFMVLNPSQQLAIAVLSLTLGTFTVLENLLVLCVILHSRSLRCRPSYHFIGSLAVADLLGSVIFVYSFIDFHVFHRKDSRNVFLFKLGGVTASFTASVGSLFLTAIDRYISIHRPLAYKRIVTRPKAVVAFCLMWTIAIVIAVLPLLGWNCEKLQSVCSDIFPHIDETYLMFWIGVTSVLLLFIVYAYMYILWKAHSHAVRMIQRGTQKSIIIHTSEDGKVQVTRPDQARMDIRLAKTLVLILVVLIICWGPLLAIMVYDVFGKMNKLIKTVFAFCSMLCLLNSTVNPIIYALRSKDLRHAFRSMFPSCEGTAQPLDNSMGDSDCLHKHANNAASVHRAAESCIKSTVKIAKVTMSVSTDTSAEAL
T5 sequence (P41143 whole entry): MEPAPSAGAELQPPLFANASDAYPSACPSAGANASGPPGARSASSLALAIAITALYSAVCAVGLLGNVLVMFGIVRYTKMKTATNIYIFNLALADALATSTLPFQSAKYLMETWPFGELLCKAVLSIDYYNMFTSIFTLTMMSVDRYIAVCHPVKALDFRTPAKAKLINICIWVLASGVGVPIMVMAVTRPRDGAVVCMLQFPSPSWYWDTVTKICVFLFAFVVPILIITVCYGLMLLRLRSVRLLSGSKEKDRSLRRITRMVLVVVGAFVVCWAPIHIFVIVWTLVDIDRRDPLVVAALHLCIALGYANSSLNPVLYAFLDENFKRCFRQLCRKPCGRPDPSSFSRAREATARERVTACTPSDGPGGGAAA
T6 sequence (P41145 whole entry): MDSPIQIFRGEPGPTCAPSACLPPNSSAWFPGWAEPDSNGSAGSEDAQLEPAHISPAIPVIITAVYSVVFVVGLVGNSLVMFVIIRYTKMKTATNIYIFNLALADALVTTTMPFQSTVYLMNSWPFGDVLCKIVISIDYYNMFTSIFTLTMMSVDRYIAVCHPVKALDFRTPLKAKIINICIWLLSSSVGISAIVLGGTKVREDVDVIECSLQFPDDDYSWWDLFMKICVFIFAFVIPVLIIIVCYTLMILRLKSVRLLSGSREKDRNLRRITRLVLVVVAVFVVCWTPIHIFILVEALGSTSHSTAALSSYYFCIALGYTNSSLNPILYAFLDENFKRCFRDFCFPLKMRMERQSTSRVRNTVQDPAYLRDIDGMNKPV
Mu-type opioid receptor, sequence (P35372 whole entry): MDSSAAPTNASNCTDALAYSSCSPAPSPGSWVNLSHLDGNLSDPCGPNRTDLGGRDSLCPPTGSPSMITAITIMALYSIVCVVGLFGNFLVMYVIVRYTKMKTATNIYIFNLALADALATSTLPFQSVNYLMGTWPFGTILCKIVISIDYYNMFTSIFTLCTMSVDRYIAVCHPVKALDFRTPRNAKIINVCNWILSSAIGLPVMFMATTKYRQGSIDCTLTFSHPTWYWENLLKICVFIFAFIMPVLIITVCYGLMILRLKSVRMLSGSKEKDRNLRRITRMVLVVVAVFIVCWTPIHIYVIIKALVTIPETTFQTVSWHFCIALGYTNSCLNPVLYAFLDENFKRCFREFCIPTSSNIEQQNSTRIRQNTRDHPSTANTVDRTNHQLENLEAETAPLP
CAAX prenyl protease 2, sequence (Q03530 whole entry): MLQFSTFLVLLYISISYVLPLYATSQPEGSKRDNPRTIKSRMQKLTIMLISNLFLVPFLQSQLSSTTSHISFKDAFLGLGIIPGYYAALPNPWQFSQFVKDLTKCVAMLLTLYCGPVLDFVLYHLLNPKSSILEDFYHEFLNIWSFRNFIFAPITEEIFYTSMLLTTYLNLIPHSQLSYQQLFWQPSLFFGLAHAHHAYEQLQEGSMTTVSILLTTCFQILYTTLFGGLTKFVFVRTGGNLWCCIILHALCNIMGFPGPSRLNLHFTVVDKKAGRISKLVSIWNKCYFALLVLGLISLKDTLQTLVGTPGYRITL
Beta-galactosidase, sequence (Q8VNN2 whole entry): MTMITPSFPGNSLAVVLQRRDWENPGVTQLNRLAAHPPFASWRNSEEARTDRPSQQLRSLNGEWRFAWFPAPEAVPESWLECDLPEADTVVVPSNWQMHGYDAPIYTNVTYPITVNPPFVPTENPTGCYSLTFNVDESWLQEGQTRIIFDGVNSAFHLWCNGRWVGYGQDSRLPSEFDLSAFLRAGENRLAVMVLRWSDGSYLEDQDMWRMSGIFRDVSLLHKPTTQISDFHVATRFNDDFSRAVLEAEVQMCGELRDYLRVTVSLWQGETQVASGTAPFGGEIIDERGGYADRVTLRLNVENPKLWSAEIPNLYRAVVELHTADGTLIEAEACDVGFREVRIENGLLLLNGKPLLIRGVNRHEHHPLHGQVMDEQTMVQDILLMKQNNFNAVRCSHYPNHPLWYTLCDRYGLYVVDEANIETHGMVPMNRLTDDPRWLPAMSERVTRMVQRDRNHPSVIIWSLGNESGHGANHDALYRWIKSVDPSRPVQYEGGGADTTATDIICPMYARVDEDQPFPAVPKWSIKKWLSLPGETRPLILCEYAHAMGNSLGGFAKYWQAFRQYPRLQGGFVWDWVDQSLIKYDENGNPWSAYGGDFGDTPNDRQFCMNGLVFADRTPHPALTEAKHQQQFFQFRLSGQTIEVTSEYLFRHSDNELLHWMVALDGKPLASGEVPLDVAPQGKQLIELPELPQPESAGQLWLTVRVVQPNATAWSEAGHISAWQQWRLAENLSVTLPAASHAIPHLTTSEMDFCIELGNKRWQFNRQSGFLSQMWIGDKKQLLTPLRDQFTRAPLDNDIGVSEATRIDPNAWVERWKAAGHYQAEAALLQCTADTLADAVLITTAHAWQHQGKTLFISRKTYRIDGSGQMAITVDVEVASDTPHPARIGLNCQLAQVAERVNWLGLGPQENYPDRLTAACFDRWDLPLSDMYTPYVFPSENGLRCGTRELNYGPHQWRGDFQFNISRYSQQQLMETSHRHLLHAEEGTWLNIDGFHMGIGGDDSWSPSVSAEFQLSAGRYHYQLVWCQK

SMILES: Cc1nc(N2CCN(C(=O)C3CCCCC3)CC2)c2c3c(sc2n1)CCCC3
- EC50 [1]: > 32 µM (inactive)
- EC50 (Cannabinoid receptor 1 [2]): > 32 µM (inactive)
- IC50 [3]: > 32 µM (inactive)
- IC50 (Cannabinoid receptor 1 [4]): 3.05 µM (active)
- IC50 [5]: 9.24 µM (active)
- IC50 (Cannabinoid receptor 2 [6]): > 16.8 µM (inactive)
- EC50 (Cannabinoid receptor 2 [7]): > 32 µM (inactive)

SMILES: O=[N+]([O-])c1ccc2nc(Cl)nc(-c3ccccc3)c2c1
- IC50 [8]: > 32 µM (inactive)
- EC50 (Mu-type opioid receptor): > 32 µM (inactive)
- EC50 [9]: > 32 µM (inactive)
- IC50 [10]: 8.95 µM (active)
- EC50 (Beta-galactosidase): > 31.5 µM (inactive)
- IC50 [11]: 27.9 µM
- AC50 [12]: 134 µM (active)
- EC50 (Protein RecA): > 380 µM (inactive)

SMILES: Cc1ccsc1/C=N/NC(=O)c1nnn(-c2nonc2N)c1C(C)C
- AC50 (CAAX prenyl protease 2): 0.87 µM (active)
- AC50 [13]: 67.6 µM (active)

SMILES: CC1=CC(C)(C)N2C(=O)C3(SCC(=O)N3c3ccc(F)cc3)c3cc(C)cc1c32 (stereo unspecified)
- IC50 [14]: 4.09 µM (active)
- IC50 (Cannabinoid receptor 1 [15]): 6.41 µM (active)
- EC50 [16]: > 32 µM (inactive)
- IC50 (Cannabinoid receptor 2 [17]): > 32 µM (inactive)
- EC50 (Cannabinoid receptor 1 [18]): > 32 µM (inactive)
- IC50 [19]: > 32 µM (inactive)
- IC50 [20]: 1.42 µM (active)
- EC50 (Cannabinoid receptor 2 [21]): > 32 µM (inactive)
- Absolute IC50 (XBP1) (X-box-binding protein 1): < 10 µM
- AC50 [22]: 23.7 µM (active)
- AC50 [23]: 53.1 µM (active)
- AC50 [24]: 1.13 µM (active)
- AC50 [25]: 43.1 µM (active)
- AC50 [26]: 21.8 µM (active)

Source: ChEMBL document CHEMBL1201862, “PubChem BioAssay data set” (2004)
